Experimental data taken from US12454516B2, “Nitric oxide releasing prodrugs of MDA and MDMA” (priority 2021, dated 2025).

Assays:
[1] = Stability in PBS pH 6.5
[2] = physchem; settings: buffer, pH 6.5
[3] = Stability in SGF without pepsin; format: in vitro ADME
[4] = Stability of Prodrug 2-1 in plasma (human); format: in vitro ADME
[5] = Stability in SGF with pepsin; format: in vitro ADME
[6] = Stability of Prodrug 2-1 in plasma (rat); format: in vitro ADME
[7] = Stability of Prodrug 2-1 in plasma (mouse); format: in vitro ADME
[8] = Solubility in FaSSIF; format: physicochemical; settings: read-out: Solublity (uM) FaSSIF

| Structure (SMILES) | Remaining Percentage (%) 0 min [1] [%] | Remaining Percentage (%) 30 min [1] [%] | Remaining Percentage (%) 60 min [1] [%] | Remaining Percentage (%) 120 min [1] [%] | Remaining Percentage (%) 240 min [1] [%] | Remaining Percentage (%) 0 min [3] [%] | Remaining Percentage (%) 30 min [3] [%] | Remaining Percentage (%) 60 min [3] [%] | Remaining Percentage (%) 120 min [3] [%] | Remaining Percentage (%) 240 min [3] [%] | half-life [4] [h] | Remaining Percentage (%) 0 min [4] [%] | Remaining Percentage (%) 15 min [4] [%] | Remaining Percentage (%) 30 min [4] [%] | Remaining Percentage (%) 60 min [4] [%] | Remaining Percentage (%) 120 min [4] [%] | Remaining Percentage (%) 0 min [5] [%] | Remaining Percentage (%) 30 min [5] [%] | Remaining Percentage (%) 60 min [5] [%] | Remaining Percentage (%) 120 min [5] [%] | other results |
| --- | --- | --- | --- | --- | --- | --- | --- | --- | --- | --- | --- | --- | --- | --- | --- | --- | --- | --- | --- | --- | --- |
| O=C(O)CCCc1ccc(N(CCCl)CCCl)cc1 [Chlorambucil, reference compound] | 100 | 62.6 | 39.9 | 15.07 | 2.05 | – | – | – | – | – | – | – | – | – | – | – | – | – | – | – | – |
| C[C@H](Cc1ccc2c(c1)OCO2)NC(=O)CCCO[N+](=O)[O-] [Compound 2-1, (R)-4-((1-(benzo[d][1,3]dioxol-5-yl)propan-2-yl)amino)-4-oxobutyl nitrate] | 100 | 104.05 | 105.81 | 98.20 | 83.83 | 100 | 95.42 | 99.51 | 93.54 | 81.87 | 15.1 | 100.00 | 100.94 | 102.03 | 90.66 | 93.79 | 100 | 98.88 | 98.96 | 89.53 | half-life [2]: 13.4 h; half-life [3]: 14.3 h; half-life [5]: 13.5 h; Remaining Percentage (%) 240 min [5]: 82.75%; half-life [6]: 3.84 h; Remaining Percentage (%) 0 min [6]: 100.00%; Remaining Percentage (%) 15 min [6]: 96.93%; Remaining Percentage (%) 30 min [6]: 93.53%; Remaining Percentage (%) 60 min [6]: 81.00%; Remaining Percentage (%) 120 min [6]: 70.84%; half-life [7]: 26.2 h; Remaining Percentage (%) 0 min [7]: 100.00%; Remaining Percentage (%) 15 min [7]: 95.13%; Remaining Percentage (%) 30 min [7]: 98.19%; Remaining Percentage (%) 60 min [7]: 95.02%; Remaining Percentage (%) 120 min [7]: 93.59%; solubility [8]: 284 µM |
| CC[C@H]1OC(=O)[C@H](C)[C@@H](O[C@H]2C[C@@](C)(OC)[C@@H](O)[C@H](C)O2)[C@H](C)[C@@H](O[C@@H]2O[C@H](C)C[C@H](N(C)C)[C@H]2O)[C@](C)(O)C[C@@H](C)C(=O)[C@H](C)[C@@H](O)[C@]1(C)O [Erythromycin, reference compound] | – | – | – | – | – | 100 | 60.53 | 34.86 | 11.45 | 1.64 | – | – | – | – | – | – | 100 | 59.9 | 39.02 | 12.40 | Remaining Percentage (%) 240 min [5]: 1.57% |
| CC[C@H](C)C(=O)O[C@H]1C[C@@H](C)C=C2C=C[C@H](C)[C@H](CC[C@@H]3C[C@@H](O)CC(=O)O3)[C@H]21 [Lovastatin, reference compound] | – | – | – | – | – | – | – | – | – | – | – | – | – | – | – | – | – | – | – | – | half-life [6]: 0.0747 h; Remaining Percentage (%) 0 min [6]: 100.00%; Remaining Percentage (%) 15 min [6]: 9.82%; Remaining Percentage (%) 30 min [6]: 0.00%; Remaining Percentage (%) 60 min [6]: 0.00%; Remaining Percentage (%) 120 min [6]: 0.00% |
| CC(C)[N+](C)(CCOC(=O)C1c2ccccc2Oc2ccccc21)C(C)C [Propantheline, reference compound] | – | – | – | – | – | – | – | – | – | – | 0.246 | 100.00 | 72.22 | 39.13 | 6.46 | 0.12 | – | – | – | – | half-life [7]: 0.449 h; Remaining Percentage (%) 0 min [7]: 100.00%; Remaining Percentage (%) 15 min [7]: 72.20%; Remaining Percentage (%) 30 min [7]: 49.21%; Remaining Percentage (%) 60 min [7]: 22.77%; Remaining Percentage (%) 120 min [7]: 4.69% |
